In patent US11865111B2, “Antiviral drugs targeting the N-terminal domain (NTD) of the coronavirus spike receptor binding domain (RBD)” (priority 2021, dated 2024):
Where two headings read alike, the source gives them in different places.

Tests used:
in vitro = settings: African green monkey
[1] = tested on: SARS-CoV-2 (USA-WA1/2020); experiment: microbe, parasite or virus in culture; assay type: cell-based; settings: for SI (selectivity index=CC50/EC50): CC50/EC50, against the SARS-CoV-2 strain
[2] = Severe acute respiratory syndrome coronavirus 2, Vero C1008, 32 h, read-out: EC50
[3] = Severe acute respiratory syndrome coronavirus 2, Vero C1008, 32 h, read-out: EC90
[4] = Severe acute respiratory syndrome coronavirus 2, Vero C1008, against the SARS-CoV-2 strain, read-out: EC90 value

Structure (SMILES) | CC50 (in vitro) [µM] | SI (selectivity index=CC50/EC50) [1] | EC50 [1, 2] [µM] | EC90 [1, 3] [µM] | EC50 ([1]; Severe acute respiratory syndrome coronavirus 2, Vero C1008, against the SARS-CoV-2 strain, read-out: EC50 value) [µM] | EC90 [1, 4] [µM] | EC50 ([1]; Severe acute respiratory syndrome coronavirus 2, Vero C1008, against the SARS-CoV-2 strain, unit inferred, read-out: EC50 value) [µM]
COC(=O)c1cccc(CNCc2cccc(-c3csc(-c4nc5ccccc5[nH]4)c3)c2)c1 [Compound 1, methyl 3-(((3-(5-(1H-benzo[d]imidazol-2-yl)thiophen-3-yl)benzyl)amino)methyl)benzoate] | > 30 | >5.30 | 5.66 | 9.5 | – | – | –
CNC(=O)c1cccc(CNCc2cccc(-c3csc(-c4nc5ccccc5[nH]4)c3)c2)c1 [Compound 2, 3-(((3-(5-(1H-benzo[d]imidazol-2-yl)thiophen-3-yl)benzyl)amino)methyl)-N-methylbenzamide] | > 30 | >4.04 | 7.43 | 13.1 | – | – | –
COC(=O)c1cccc(CNC(=O)c2cccc(-c3csc(-c4nc5ccccc5[nH]4)c3)c2)c1 [Compound 3, methyl 3-((3-(5-(1H-benzo[d]imidazol-2-yl)thiophen-3-yl)benzamido)methyl)benzoate] | > 30 | >4.00 | 7.5 | 12.6 | – | – | –
CCOc1cc(CN2CCC(C(=O)Nc3cccc(-c4cccc(F)c4)c3)CC2)ccc1O [Compound 4, 1-(3-ethoxy-4-hydroxybenzyl)-N-(3′-fluoro-[1,1′-biphenyl]-3-yl)piperidine-4-carboxamide] | > 30 | >4.92 | 6.1 | 10.1 | – | – | –
CCOc1cc(CN2CCC(C(=O)Nc3cccc(-c4cccc(C(F)(F)F)c4)c3)CC2)ccc1O [Compound 5, 1-(3-ethoxy-4-hydroxybenzyl)-N-(3′-(trifluoromethyl)-[1,1′-biphenyl]-3-yl)piperidine-4-carboxamide] | 15.6 | 3.20 | 4.91 | 7.47 | – | – | –
CCOc1cc(CN2CCC(C(=O)Nc3cccc(-c4cccc(OC)c4)c3)CC2)ccc1O [Compound 6, 1-(3-ethoxy-4-hydroxybenzyl)-N-(3′-methoxy-[1,1′-biphenyl]-3-yl)piperidine-4-carboxamide] | 26.3 | 3.70 | 7.16 | 11.5 | – | – | –
O=C(Nc1cccc(-c2cccc(Cl)c2)c1)C1CCN(Cc2ccc(O)cc2)CC1 [Compound 7, N-(3′-chloro-[1,1′-biphenyl]-3-yl)-1-(4-hydroxybenzyl)piperidine-4-carboxamide] | 21 | 3.36 | 6.4 | 11 | – | – | –
COc1ccc(CN2CCC(C(=O)Nc3cccc(-c4cccc(Cl)c4)c3)CC2)cc1O [Compound 8, N-(3′-chloro-[1,1′-biphenyl]-3-yl)-1-(3-hydroxy-4-methoxybenzyl)piperidine-4-carboxamide] | 17 | 2.48 | 6.9 | 11.7 | – | – | –
CCOc1cc(CN2CCC(C(=O)Nc3cccc(-c4cccc(Cl)c4)c3)CC2)ccc1O [Compound 9, N-(3′-chloro-[1,1′-biphenyl]-3-yl)-1-(3-ethoxy-4-hydroxybenzyl)piperidine-4-carboxamide] | 16 | 2.80 | 5.8 | 8.9 | – | – | –
CCOc1cc(CN2CCC(C(=O)Nc3cccc(-c4ccc(Cl)cc4)c3)CC2)ccc1O [Compound 10, N-(4′-chloro-[1,1′-biphenyl]-3-yl)-1-(3-ethoxy-4-hydroxybenzyl)piperidine-4-carboxamide] | 16 | 2.65 | 6.2 | 9.1 | – | – | –
COc1cc(C(=O)OCCCN2CCCN(CCCOC(=O)c3cc(OC)c(OC)c(OC)c3)CC2)cc(OC)c1OC [Dilazep, 3-[4-[3-(3,4,5-trimethoxybenzoyl)oxypropyl]-1,4-diazepan-1-yl]propyl 3,4,5-trimethoxybenzoate, reference compound] | > 30 | – | – | – | 3.89 | 19.8 | –
O=C(NC1CCN(CCCCC2(C(=O)NCC(F)(F)F)c3ccccc3-c3ccccc32)CC1)c1ccccc1-c1ccc(C(F)(F)F)cc1 [N-(2,2,2-trifluoroethyl)-9-(4-(4-(4′-(trifluoromethyl)-[1,1′-biphenyl]-2-carboxamido)piperidin-1-yl)butyl)-9H-fluorene-9-carboxamide, reference compound] | 9.56 | 5.92 | – | – | – | 2.83 | 1.61
